Series [1] addresses human orexin-2 receptor (Homo sapiens (Human), UniProt O43614). In words: In vitro intracellular calcium measurements (FLIPR), antagonistic activity on orexin-2 receptor. The series is classed as cell-based. To be noted: read-out: IC50 OX2. In outline: (§1)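 CHO cells expressing human orexin-1 or orexin-2 receptor were seeded overnight, preincubated with antagonist for 120 min, then stimulated with agonist in a FLIPR Tetra.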
On the technique in general: Calcium flux is commonly read through the fluorescence of an indicator in the cells.

The target of series [2] is CYP3A4 (Homo sapiens (Human), UniProt P08684). The experiment in a line: CYP3A4 inhibition assay (human liver microsomes, testosterone 6β-hydroxylation). To be noted: read-out: CYP3A4 IC50, 40 μM testosterone. (Microsomes from liver hold many membrane-bound enzymes, among them those of drug oxidation.)
Sequence of CYP3A4 (P08684 whole entry): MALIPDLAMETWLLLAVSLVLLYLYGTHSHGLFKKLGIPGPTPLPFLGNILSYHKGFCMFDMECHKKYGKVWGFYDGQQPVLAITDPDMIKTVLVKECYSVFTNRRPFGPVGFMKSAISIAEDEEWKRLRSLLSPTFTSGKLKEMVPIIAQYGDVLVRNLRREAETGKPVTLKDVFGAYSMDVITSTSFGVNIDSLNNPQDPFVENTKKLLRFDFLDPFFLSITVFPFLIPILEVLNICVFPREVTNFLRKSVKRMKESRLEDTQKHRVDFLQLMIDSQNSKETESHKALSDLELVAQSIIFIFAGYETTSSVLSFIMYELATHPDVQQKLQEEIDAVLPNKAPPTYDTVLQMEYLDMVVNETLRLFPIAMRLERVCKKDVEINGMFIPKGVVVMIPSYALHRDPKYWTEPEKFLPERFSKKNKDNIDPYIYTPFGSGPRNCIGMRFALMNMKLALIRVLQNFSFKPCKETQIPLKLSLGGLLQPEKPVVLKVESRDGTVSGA
The nature of series [3]: Measurement of brain and systemic concentration after oral administration. The series is classed as in vivo. To be noted: rat, brain, male wistar rats, oral 100 mg/kg, read-out: brain concentration [B]; for concentration at 1 h: formulated in 10% PEG400/90% MC0.5%, sampled at 1 h; for concentration at 3 h: formulated in 100% PEG400, sampled at 3 h. The procedure:
Measurement of Brain and Systemic Concentration after Oral Administration:
In order to assess brain penetration, the concentration of the compound is measured in plasma ([P]), and brain ([B]), sampled 1 h or 3 h (or at different time points) following oral administration (100 mg/kg) to male wistar rats (n=3). The compounds are formulated either in 100% PEG 400 or 10% PEG400/90% MC0.5%. Samples are collected in the same animal at the same time point (+/−5 min). Blood is sampled from the vena cava caudalis into containers with EDTA as anticoagulant and centrifuged to yield plasma. Brain is sampled after cardiac perfusion of 10 mL NaCl 0.9% and homogenized into one volume of cold phosphate buffer (pH 7.4). All samples are extracted with MeOH and analyzed by LC-MS/MS. Concentrations are determined with the help of calibration curves. Inter-individual variations between the three rats were limited. Particular compounds of the present invention tested as described above gave brain concentrations ([B]) as shown in Table 16 below; wherein the compounds of Examples 11-37 and 94 were formulated in 100% PEG400 and sampled at 3 h. All other examples below were formulated in 10% PEG400/90% MC0.5% and sampled at 1 h.

Series [4] has as its target human orexin-1 receptor (Homo sapiens (Human), UniProt O43613). The experiment in a line: In vitro intracellular calcium measurements (FLIPR), antagonistic activity on orexin-1 receptor. The series is classed as cell-based. In outline:
as §1

For series [5], the system named is rodents. To be noted: cited from earlier work.
The mark [6] stands for this setting: CHO cells expressing human orexin-2 receptor, FLIPR, 3 nM orexin-A agonist, 120 min antagonist incubation, geometric mean if determined several times.
Setting [7] is: CHO cells expressing human orexin-1 receptor, FLIPR, 3 nM orexin-A agonist, 120 min antagonist incubation, geometric mean if determined several times, read-out: IC50 OX1.

Where two headings read alike, the source gives them in different places.

Sequence of human orexin-2 receptor (O43614 whole entry): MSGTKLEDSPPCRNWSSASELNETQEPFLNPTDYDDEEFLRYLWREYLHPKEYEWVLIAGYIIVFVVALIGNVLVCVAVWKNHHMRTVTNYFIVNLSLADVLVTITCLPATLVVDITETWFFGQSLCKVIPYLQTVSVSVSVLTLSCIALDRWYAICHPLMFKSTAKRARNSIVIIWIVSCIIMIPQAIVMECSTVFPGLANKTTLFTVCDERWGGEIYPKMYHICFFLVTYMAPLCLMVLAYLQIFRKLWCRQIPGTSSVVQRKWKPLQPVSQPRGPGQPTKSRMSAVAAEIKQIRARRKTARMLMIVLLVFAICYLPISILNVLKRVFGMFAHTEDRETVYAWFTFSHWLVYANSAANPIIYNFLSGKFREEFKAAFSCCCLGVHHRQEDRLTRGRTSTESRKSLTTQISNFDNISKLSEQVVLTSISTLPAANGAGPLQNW
Sequence of human orexin-1 receptor (O43613 whole entry): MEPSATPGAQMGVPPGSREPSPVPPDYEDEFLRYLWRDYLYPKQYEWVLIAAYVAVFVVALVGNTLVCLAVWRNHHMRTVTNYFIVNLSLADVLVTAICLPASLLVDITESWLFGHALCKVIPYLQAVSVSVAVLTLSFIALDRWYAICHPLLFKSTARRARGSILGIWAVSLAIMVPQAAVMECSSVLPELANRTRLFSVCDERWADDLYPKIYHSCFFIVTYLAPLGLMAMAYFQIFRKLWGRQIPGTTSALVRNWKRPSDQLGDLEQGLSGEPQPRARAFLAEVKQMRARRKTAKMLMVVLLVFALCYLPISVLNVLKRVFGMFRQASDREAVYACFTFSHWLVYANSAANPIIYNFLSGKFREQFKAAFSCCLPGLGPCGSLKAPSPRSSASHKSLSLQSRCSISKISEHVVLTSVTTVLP

For the molecule `Cc1ccc(C(=O)N2CCOC[C@H]2Cc2cccc(-n3nccn3)c2)c(-n2nccn2)c1C` [Example 92, (3,4-Dimethyl-2-[1,2,3]triazol-2-yl-phenyl)-[(R)-3-(3-[1,2,3]triazol-2-yl-benzyl)-morpholin-4-yl]-methanone], the 50% inhibitory concentration (IC50) amounted to 2630 nM in series [1], 44000 nM in series [2] and 3 nM in series [4] (read-out: IC50 OX1). Also, the concentration at 1 h in series [3] stood at 1970 ng/g.

As for `Cn1c(SCC(=O)N2CCC[C@H]2C(=O)Nc2ccccc2-c2ccccc2)nc2ccccc21` [N-biphenyl-2-yl-1-{[(1-methyl-1H-benzimidazol-2-yl)sulfanyl]acetyl}-L-prolinamide], in series [5], the “behavioral and molecular changes induced by repeated amphetamine administration” value was “reduced behavioral (locomotor sensitization) and molecular (transcriptional responses) changes induced by repeated amphetamine administration”; the “nicotine-reinstatement for a conditioned reinforcer” value was “inhibited nicotine-reinstatement for a conditioned reinforcer”.

Consider `Cc1ccc(C(=O)N2CCOC[C@H]2Cc2cc(-n3nccn3)ccc2Cl)c(-n2nccn2)c1` [Example 120, [(R)-3-(2-Chloro-5-[1,2,3]triazol-2-yl-benzyl)-morpholin-4-yl]-(4-methyl-2-[1,2,3]triazol-2-yl-phenyl)-methanone], for which the IC50 turned out to be 531 nM in series [1], 19000 nM in series [2] and 3 nM in series [4] (read-out: IC50 OX1). In addition, in series [3], the concentration at 1 h came to 5130 ng/g.

In the case of `O=C(c1cc(Cl)ccc1-n1nccn1)N1CCOC[C@H]1Cc1cccc(-n2nccn2)c1` [Example 30, (5-Chloro-2-[1,2,3]triazol-2-yl-phenyl)-[(R)-3-(3-[1,2,3]triazol-2-yl-benzyl)-morpholin-4-yl]-methanone], the values for the IC50 in series [1] (setting [6]), in series [2] and in series [4] (setting [7]) were 199 nM, 17000 nM and 4 nM, respectively. Further, the concentration at 3 h in series [3] was found to be 1870 ng/g.

On to `O=C(c1ccc(Cl)cc1-n1nccn1)N1CCOC[C@H]1Cc1cccc(-n2nccn2)c1` [Example 77, (4-Chloro-2-[1,2,3]triazol-2-yl-phenyl)-[(R)-3-(3-[1,2,3]triazol-2-yl-benzyl)-morpholin-4-yl]-methanone], for which the IC50 in series [1] (setting [6]) came to 96 nM; in series [2] it was 16000 nM; in series [4] (setting [7]), 1 nM. Besides, the concentration at 1 h in series [3] turned out to be 1610 ng/g.

For `Cc1ccc(C(=O)N2CCOC[C@H]2Cc2cc(-n3nccn3)ccc2F)c(-n2nccn2)c1C` [Example 94, (3,4-Dimethyl-2-[1,2,3]triazol-2-yl-phenyl)-[(R)-3-(2-fluoro-5-[1,2,3]triazol-2-yl-benzyl)-morpholin-4-yl]-methanone], the 50% inhibitory concentration (IC50) came to 3580 nM in series [1] (setting [6]), 30000 nM in series [2] and 6 nM in series [4] (setting [7]). In addition, the concentration at 3 h in series [3] was determined as 654 ng/g.

In the case of `Cc1ccc(C(=O)N2CCOC[C@H]2Cc2cccc(-n3nccn3)c2)c(-n2nccn2)c1` [Example 27, (4-Methyl-2-[1,2,3]triazol-2-yl-phenyl)-[(R)-3-(3-[1,2,3]triazol-2-yl-benzyl)-morpholin-4-yl]-methanone], the concentration for half-maximal inhibition (IC50) was 274 nM in series [1], 31000 nM in series [2] and 2 nM in series [4] (read-out: IC50 OX1). Besides, the concentration at 3 h in series [3] worked out at 5500 ng/g.

Regarding `C[C@@H]1CN(C(=O)c2ccccc2-n2nccn2)[C@H](Cc2cc(-n3nccn3)ccc2F)CO1` [Example 116, [(2R,5R)-5-(2-Fluoro-5-[1,2,3]triazol-2-yl-benzyl)-2-methyl-morpholin-4-yl]-(2-[1,2,3]triazol-2-yl-phenyl)-methanone], the IC50 stood at 899 nM in series [1] (setting [6]), 21000 nM in series [2] and 21 nM in series [4] (setting [7]). Also, the concentration at 1 h in series [3] came to 5930 ng/g.

Consider `C[C@@H]1CN(C(=O)c2ccccc2-n2nccn2)[C@H](Cc2cccc(-n3nccn3)c2)CO1` [Example 100, [(2R,5R)-2-Methyl-5-(3-[1,2,3]triazol-2-yl-benzyl)-morpholin-4-yl]-(2-[1,2,3]triazol-2-yl-phenyl)-methanone], for which the 50% inhibitory concentration (IC50) is 289 nM in series [1] (setting [6]), 13000 nM in series [2] and 6 nM in series [4] (setting [7]). Further, in series [3], the concentration at 1 h stood at 529 ng/g.

`O=C(c1ccccc1-n1nccn1)N1CCOC[C@H]1Cc1cccc(-n2nccn2)c1` [Example 12, [(R)-3-(3-[1,2,3]Triazol-2-yl-benzyl)-morpholin-4-yl]-(2-[1,2,3]triazol-2-yl-phenyl)-methanone]: the figures for the concentration for half-maximal inhibition (IC50) in series [1] (setting [6]), in series [2] and in series [4] (setting [7]) were 1240 nM, 30000 nM and 17 nM, respectively. In addition, the concentration at 3 h in series [3] was 11900 ng/g.

Consider `Cc1cc(C(=O)N2CCOC[C@H]2Cc2cccc(-n3nccn3)c2)c(-n2nccn2)cc1C` [Example 35, (4,5-Dimethyl-2-[1,2,3]triazol-2-yl-phenyl)-[(R)-3-(3-[1,2,3]triazol-2-yl-benzyl)-morpholin-4-yl]-methanone], for which the IC50 in series [1] (setting [6]) came out at 25 nM; in series [2], 20000 nM; in series [4] (setting [7]) it was 1 nM. Besides, the concentration at 3 h in series [3] came to 59 ng/g.

On to `Cc1ccc(-n2nccn2)c(C(=O)N2CCOC[C@H]2Cc2cccc(-n3cccn3)c2)c1F` [Example 21, (2-Fluoro-3-methyl-6-[1,2,3]triazol-2-yl-phenyl)-[(R)-3-(3-pyrazol-1-yl-benzyl)-morpholin-4-yl]-methanone], for which the values for the IC50 in series [1] (setting [6]), in series [2] and in series [4] (setting [7]) were 1650 nM, 20000 nM and 2 nM, respectively. In addition, the concentration at 3 h in series [3] amounted to 36 ng/g.

Take `O=C(c1ccc(Cl)cc1-n1nccn1)N1CCOC[C@H]1Cc1cc(-n2nccn2)ccc1F` [Example 130, (4-Chloro-2-[1,2,3]triazol-2-yl-phenyl)-[(R)-3-(2-fluoro-5-[1,2,3]triazol-2-yl-benzyl)-morpholin-4-yl]-methanone]: the half-maximal inhibitory concentration (IC50) was 191 nM in series [1] (setting [6]), 20000 nM in series [2] and 3 nM in series [4] (setting [7]). The concentration at 1 h in series [3] came to 5830 ng/g.

For the molecule `Cc1ccc(-n2nccn2)c(C(=O)N2CCOC[C@H]2Cc2cccc(-n3nccn3)c2)c1F` [Example 29, (2-Fluoro-3-methyl-6-[1,2,3]triazol-2-yl-phenyl)-[(R)-3-(3-[1,2,3]triazol-2-yl-benzyl)-morpholin-4-yl]-methanone], the IC50 in series [1] (setting [6]) came to 333 nM; in series [2], 39000 nM; in series [4] (setting [7]), 4 nM. Besides, in series [3], the concentration at 3 h was determined as 423 ng/g.

In the case of `Cc1cccc(C(=O)N2CCOC[C@H]2Cc2cccc(-n3nccn3)c2)c1-n1nccn1` [Example 64, (3-Methyl-2-[1,2,3]triazol-2-yl-phenyl)-[(R)-3-(3-[1,2,3]triazol-2-yl-benzyl)-morpholin-4-yl]-methanone], the 50% inhibitory concentration (IC50) worked out at 784 nM in series [1] (setting [6]), 33000 nM in series [2] and 6 nM in series [4]. In addition, in series [3], the concentration at 1 h is 2370 ng/g.

For the molecule `COc1cc(C(=O)N2CCOC[C@H]2Cc2cccc(-n3nccn3)c2)c(-n2nccn2)cc1C` [Example 37, (5-Methoxy-4-methyl-2-[1,2,3]triazol-2-yl-phenyl)-[(R)-3-(3-[1,2,3]triazol-2-yl-benzyl)-morpholin-4-yl]-methanone], the IC50 in series [1] (setting [6]) turned out to be 209 nM; in series [2], 17000 nM; in series [4] (setting [7]), 4 nM. Also, the concentration at 3 h in series [3] turned out to be 881 ng/g.

One may read the IC50 as the point on the concentration scale where inhibition reaches its midpoint.

The values above are taken from patent publication US9150566B2, “2-(1,2,3-triazol-2-yl)benzamide and 3-(1,2,3-triazol-2-YL)picolinamide derivatives as orexin receptor antagonists” (ACTELION PHARMACEUTICALS LTD., priority 2011, dated 2015).
